Measured values reported in US10933113B2, “Use of a compound, pharmaceutical composition, and therapeutic method for the treatment or prevention of convulsions” (PROTEIMAX BIO[…]A, priority 2016, dated 2021).

Tested on: pilocarpine model
Assay: pilocarpine model, oral test compound 10 minutes before intraperitoneal pilocarpine
Type: in vivo, Mus musculus or mouse
Description: In some instances, the anticonvulsive effects of the composition of the invention have been evaluated in vivo upon oral administration to animals. The pharmaceutical composition of the invention was administered to mammals (Mus musculus or mouse) with oral dose of treatment, as compared to other compounds or to saline control. In these experiments, the test compounds were administered orally 10 minutes prior to the (intraperitoneal) administration of pilocarpine. Pilocarpine hydrochloride (320 mg/kg, Merck), dissolved in 0.9% sterile saline, was given intraperitoneally for induction of SE (status epileticus) (Turski et al., 1983). In the Turski model, the neurotoxic effects begin about 15-25 minutes after the injection of Pilo, with the occurrence of motor and limbic seizures, the animals evolving to a state of continuous (clonic) seizures that characterize SE Sanabria and Cavalheiro, 2000).
In this embodiment, the anticonvulsant effect of the composition of the invention prepared according to example 1 was evaluated by prior administration of the inventive composition and subsequent administration of pilocarpine to animals. Administration of pilocarpine leads to severe brain damage, neurotoxicity, and usually culminates in the death of animals.
The composition of the invention prepared according to Example 1 was pre-administered to the animals.

[1] = 1000 μg/kg oral, group n=5, pilocarpine 320 mg/kg i.p.

Row | Molecule | survival time compared with control (FIG. 1) (1000 μg/kg oral) | survival time compared with control (FIG. 1) (600 μg/kg oral) | number of animals that died in the group [1] | remaining animals that remained alive for more than a week [1] | mean survival time for the group (1000 μg/kg oral, versus control, Hp 600 μg/kg, DIIADDEPLT 1000 μg/kg) | occurrence of typical side effects of other anticonvulsants, such as prostration and nasal bleeding (oral administration, mice) | brain injury related symptoms and survival after pilocarpine (prior oral administration of the composition of Example 1) | time for the occurrence of the first salivation (FIG. 4) (prior oral administration, pilocarpine-induced salivation) | time for the occurrence of the first seizure (FIG. 6), P vs Control, Hp 600 μg/kg, Pep19 1000 μg/kg (starred group, by exclusion Hp 1000 μg/kg oral)
1 | DIIADDEPLT [peptide used as another control, reference compound] | not statistically significant | – | – | – | – | – | – | – | –
2 | CC(C)C[C@H](NC(=O)[C@H](Cc1ccccc1)NC(=O)[C@H](CCCCN)NC(=O)[C@H](Cc1ccccc1)NC(=O)[C@H](CC(N)=O)NC(=O)[C@@H](NC(=O)[C@@H]1CCCN1)C(C)C)C(=O)N[C@@H](CO)C(=O)N[C@@H](Cc1cnc[nH]1)C(=O)O [Hp, PVNFKFLSH] | – | not statistically significant | one | 4 | significantly different and higher than the others | has not been observed | the vast majority of the animals subjected to these experiments had no brain injury related symptoms and survived without apparent damage | substantial change in the time profile for the occurrence of the first salivation | < 0.001
